Laboratory results from article PMC6028903, “Solubility Thermodynamics of CyMe 4 -BTBP in Various Diluents Mixed with TBP” (Journal of Solution Chemistry, 2018).
In brackets after ≈: the same amount, converted by molar mass. Read-outs that look alike come from different tables or passages of the source. Marks after values point to notes of the source that are not given here. Values belong to the compound of their own block, whether it stands above or below them.

Key:
[1] = literature; cited from earlier work
[2] = Surface tension against air (du Noüy ring method); type: physicochemical; conditions: 294 K, 0.1 MPa
Method: (§1) The density, ρ , and surface tension, γ , against air (using the du Noüy ring method) for the different solvents was measured at room temperature (293–295 K) using a tensiometer (Sigma 700, Attension). The surface tensiometer ring was lowered into the organic phase until it was totally immersed. The tensiometer then measured the surface tension automatically by slowly pulling out the ring of the organic phase and measuring the force required to detach the ring from the organic surface. The density was measured using the same tensiometer and a calibrated density probe.

[3] = Density (tensiometer with density probe); type: physicochemical; conditions: 294 K, 0.1 MPa
Method: as §1

[4] = set-up: method as in earlier work; conditions: literature; cited from earlier work
[5] = literature; cited from earlier work; remark: listed apart in the source
[6] = 298 K; cited from earlier work
[7] = set-up: method as in doi:10.1080/07366299.2011.539462; conditions: cited from earlier work
[8] = Solubility of CyMe4-BTBP in GANEX solvents (70% vol diluent, 30% vol TBP), UV-VIS of the Fe2+ complex; type: physicochemical; conditions: organic solvent or mixture, thermodynamic from solid
[9] = 10 mmol/L CyMe4-BTBP, cited from earlier work
[10] = Dissolution thermodynamics of CyMe4-BTBP (van't Hoff linear fit and heat capacity calculation); type: physicochemical; conditions: for c (288 K), calculated CyMe 4 -BTBP concentration / c (298 K), calculated CyMe 4 -BTBP concentration / c (308 K), calculated CyMe 4 -BTBP concentration: calculated from linear fits; for ΔG^0 (288 K) / ΔG^0 (298 K) / ΔG^0 (308 K): from linear fits; for ΔH^0 / ΔS^0: calculated using ΔCp; for ΔH^0 linear / ΔS^0 linear: linear fit
[11] = Cyclohex./TBP b, pre-equilibrated with HNO3
[12] = Cyclohex./TBP b, pre-equilibrated
[13] = FS-13/TBP b, pre-equilibrated with HNO3
[14] = Octanol/TBP b, pre-equilibrated with HNO3
[15] = Octanol/TBP b, pre-equilibrated

Surface tension [2]: 26.6 ± 0.01 mN · m ^-1
Density [3]: 1.40 ± 0.01 g · cm ^-3
SMILES: O=S(=O)(c1ccccc1)C(F)(F)F [FS-13, phenyl trifluoromethyl sulfone]
Flash point [1]: 395 K^d

SMILES: O=C1CCCCC1 [Cyclohexanone, cyclohexanone]
Flash point [1]: 317 K^a
Density [4]: 0.95^b g · cm ^-3
Surface tension [5]: 34.4^a mN · m ^-1
Solvent in water [6]: 2.3^b wt%
Water in solvent [6]: 8.0^b wt%

SMILES: CCCCCCCCO [1-Octanol, 1-octanol]
Flash point [1]: 358 K^a
Density [4]: 0.83^b g · cm ^-3
Surface tension [5]: 27.2^a mN · m ^-1
Solvent in water [6]: 0.0538^b wt%
Water in solvent [6]: 4.2^c wt%

solubility at 3 days ([8]; GANEX solvent 1-octanol/TBP, 25 °C, Octanol/TBP, 70% vol diluent and 30% vol TBP, 298 K, read-out: CyMe 4 -BTBP solubility at 298 K): 13 mM (≈ 6.95 mg/mL)
solubility at 3 days ([8]; GANEX solvent FS-13/TBP, 25 °C, FS-13/TBP, 70% vol diluent and 30% vol TBP, 298 K, read-out: CyMe 4 -BTBP solubility at 298 K): 130 mM (≈ 69.5 mg/mL)
solubility at 3 days ([8]; GANEX solvent FS-13/TBP, 70% vol FS-13 and 30% vol TBP, 4 mol/L NaCl in Milli-Q water instead of nitric acid, single sample, read-out: CyMe 4 -BTBP solubility): 20 mM (≈ 10.7 mg/mL)
solubility at 3 days ([8]; GANEX solvent FS-13/TBP, 70% vol FS-13 and 30% vol TBP, 4 mol/L hydrochloric acid instead of nitric acid, single sample, read-out: CyMe 4 -BTBP solubility): 30 mM (≈ 16 mg/mL)
solubility at 3 days ([8]; GANEX solvent FS-13/TBP, 70% vol FS-13 and 30% vol TBP, Milli-Q water instead of nitric acid, single sample, read-out: CyMe 4 -BTBP solubility): 15 mM (≈ 8.02 mg/mL)
solubility at 3 days ([8]; GANEX solvent cyclohexanone/TBP, 25 °C, Cyclohex./TBP, 70% vol diluent and 30% vol TBP, 298 K, read-out: CyMe 4 -BTBP solubility at 298 K): 180 mM (≈ 96.2 mg/mL)
c (288 K), calculated CyMe 4 -BTBP concentration ([10]; Cyclohex./TBP a, pristine): 13 mmol · L ^-1
ΔG^0 (288 K) ([10]; Cyclohex./TBP a, pristine): 10.5 kJ · mol ^-1
c (298 K), calculated CyMe 4 -BTBP concentration ([10]; Cyclohex./TBP a, pristine): 27 mmol · L ^-1
ΔG^0 (298 K) ([10]; Cyclohex./TBP a, pristine): 8.9 kJ · mol ^-1
c (308 K), calculated CyMe 4 -BTBP concentration ([10]; Cyclohex./TBP a, pristine): 56 mmol · L ^-1
ΔG^0 (308 K) ([10]; Cyclohex./TBP a, pristine): 7.4 kJ · mol ^-1
ΔH^0 ([10]; Cyclohex./TBP a, pristine): 53 kJ · mol ^-1
ΔS^0 ([10]; Cyclohex./TBP a, pristine): 150 J · mol ^-1· K ^-1
ΔH^0 linear ([10]; Cyclohex./TBP a, pristine): 54.4 ± 2.6 kJ · mol ^-1
ΔS^0 linear ([10]; Cyclohex./TBP a, pristine): 152.4 ± 1.9 J · mol ^-1· K ^-1
ΔCp [10, 11]: 1.4 kJ · mol ^-1· K ^-1
ΔH^0 [10, 11]: 15 kJ · mol ^-1
ΔS^0 [10, 11]: 38 J · mol ^-1· K ^-1
ΔH^0 linear [10, 11]: 13.3 ± 0.5 kJ · mol ^-1
ΔS^0 linear [10, 11]: 30.8 ± 0.3 J · mol ^-1· K ^-1
c (288 K), calculated CyMe 4 -BTBP concentration [10, 12]: 160 mmol · L ^-1
ΔG^0 (288 K) [10, 12]: 4.4 kJ · mol ^-1
c (298 K), calculated CyMe 4 -BTBP concentration [10, 12]: 190 mmol · L ^-1
ΔG^0 (298 K) [10, 12]: 4.1 kJ · mol ^-1
c (308 K), calculated CyMe 4 -BTBP concentration [10, 12]: 230 mmol · L ^-1
ΔG^0 (308 K) [10, 12]: 3.8 kJ · mol ^-1
ΔCp ([10]; FS-13/TBP a, pristine): 1.3 kJ · mol ^-1· K ^-1
c (288 K), calculated CyMe 4 -BTBP concentration ([10]; FS-13/TBP a, pristine): 14 mmol · L ^-1
ΔG^0 (288 K) ([10]; FS-13/TBP a, pristine): 10.3 kJ · mol ^-1
c (298 K), calculated CyMe 4 -BTBP concentration ([10]; FS-13/TBP a, pristine): 16 mmol · L ^-1
ΔG^0 (298 K) ([10]; FS-13/TBP a, pristine): 10.3 kJ · mol ^-1
c (308 K), calculated CyMe 4 -BTBP concentration ([10]; FS-13/TBP a, pristine): 17 mmol · L ^-1
ΔG^0 (308 K) ([10]; FS-13/TBP a, pristine): 10.4 kJ · mol ^-1
ΔH^0 ([10]; FS-13/TBP a, pristine, 288, 298, 308 K): 8 kJ · mol ^-1
ΔH^0 linear ([10]; FS-13/TBP a, pristine): 8.3 ± 0.6 kJ · mol ^-1
ΔH^0 [10, 13]: 27 kJ · mol ^-1
ΔS^0 [10, 13]: 72 J · mol ^-1· K ^-1
ΔH^0 linear [10, 13]: 26.6 ± 0.3 kJ · mol ^-1
ΔS^0 linear [10, 13]: 72.1 ± 0.2 J · mol ^-1· K ^-1
c (288 K), calculated CyMe 4 -BTBP concentration ([10]; FS-13/TBP b, pre-equilibrated): 90 mmol · L ^-1
ΔG^0 (288 K) ([10]; FS-13/TBP b, pre-equilibrated): 5.8 kJ · mol ^-1
c (298 K), calculated CyMe 4 -BTBP concentration ([10]; FS-13/TBP b, pre-equilibrated): 130 mmol · L ^-1
ΔG^0 (298 K) ([10]; FS-13/TBP b, pre-equilibrated): 5.1 kJ · mol ^-1
c (308 K), calculated CyMe 4 -BTBP concentration ([10]; FS-13/TBP b, pre-equilibrated): 180 mmol · L ^-1
ΔG^0 (308 K) ([10]; FS-13/TBP b, pre-equilibrated): 4.4 kJ · mol ^-1
c (288 K), calculated CyMe 4 -BTBP concentration ([10]; Octanol/TBP a, pristine): 3.4 mmol · L ^-1
ΔG^0 (288 K) ([10]; Octanol/TBP a, pristine): 13.6 kJ · mol ^-1
c (298 K), calculated CyMe 4 -BTBP concentration ([10]; Octanol/TBP a, pristine): 4.3 mmol · L ^-1
ΔG^0 (298 K) ([10]; Octanol/TBP a, pristine): 13.4 kJ · mol ^-1
c (308 K), calculated CyMe 4 -BTBP concentration ([10]; Octanol/TBP a, pristine): 5.5 mmol · L ^-1
ΔG^0 (308 K) ([10]; Octanol/TBP a, pristine): 13.3 kJ · mol ^-1
ΔH^0 ([10]; Octanol/TBP a, pristine): 17 kJ · mol ^-1
ΔS^0 ([10]; Octanol/TBP a, pristine): 14 J · mol ^-1· K ^-1
ΔH^0 linear ([10]; Octanol/TBP a, pristine): 18.0 ± 1.1 kJ · mol ^-1
ΔS^0 linear ([10]; Octanol/TBP a, pristine): 15.0 ± 0.8 J · mol ^-1· K ^-1
ΔCp [10, 14]: 2.3 kJ · mol ^-1· K ^-1
ΔH^0 [10, 14]: 21 kJ · mol ^-1
ΔS^0 [10, 14]: 33 J · mol ^-1· K ^-1
ΔH^0 linear [10, 14]: 20.0 ± 1.0 kJ · mol ^-1
ΔS^0 linear [10, 14]: 31.6 ± 0.7 J · mol ^-1· K ^-1
c (288 K), calculated CyMe 4 -BTBP concentration [10, 15]: 11 mmol · L ^-1
ΔG^0 (288 K) [10, 15]: 10.9 kJ · mol ^-1
c (298 K), calculated CyMe 4 -BTBP concentration [10, 15]: 14 mmol · L ^-1
ΔG^0 (298 K) [10, 15]: 10.6 kJ · mol ^-1
c (308 K), calculated CyMe 4 -BTBP concentration [10, 15]: 18 mmol · L ^-1
ΔG^0 (308 K) [10, 15]: 10.2 kJ · mol ^-1
SMILES: CC1(C)CCC(C)(C)c2nc(-c3cccc(-c4cccc(-c5nnc6c(n5)C(C)(C)CCC6(C)C)n4)n3)nnc21 [CyMe 4 -BTBP, 6,6′-bis(5,5,8,8-tetramethyl-5,6,7,8-tetrahydrobenzo[1,2,4]triazin-3-yl)[2,2′]bipyridine]
Solubility in a nitric acid aqueous phase [7]: not soluble above the detection limit
Americium distribution ratio at 298 K using 10 mmol · L ^-1 CyMe 4 -BTBP ([9]; Cyclohex./TBP): 160^b
Americium distribution ratio at 298 K using 10 mmol · L ^-1 CyMe 4 -BTBP ([9]; FS-13/TBP): 30^a
Americium distribution ratio at 298 K using 10 mmol · L ^-1 CyMe 4 -BTBP ([9]; Octanol/TBP): 30^c
